These results are taken from ChEMBL document CHEMBL1135795, “Bacteriopurpurinimides: highly stable and potent photosensitizers for photodynamic therapy” (J Med Chem, 2002).

The nature of the data set: Partition coefficient (logP). In kind it is physicochemical. The conditions noted are these: octanol/water.

The structures appear in SMILES notation.

Take `CCCCCCN1C(=O)c2c3nc(cc4[nH]c(cc5nc(cc6[nH]c2c(c6C)C1=O)[C@H](CC)[C@H]5C)c(C(C)OC)c4C)[C@@H](C)[C@@H]3CCC(=O)OCCC` (stereo partly drawn): the logP (commonly the decadic logarithm of the partition coefficient of the neutral form, usually between octanol and water) (read-out: logP) came to 8.18.

As for `CCCCCCN1C(=O)C2=C(C)c3cc4[nH]c(cc5[nH]c(cc6nc(c(c2n3)C1=O)[C@@H](CCC(=O)OCCC)[C@@H]6C)c(C)c5C(C)OCCC)[C@H](C)[C@H]4CC` (stereo partly drawn), the logP is 9.16.

The compound `CCCCCCCOC(C)C1=C(C)c2cc3[nH]c(c4c5[nH]c(cc6nc(cc1n2)[C@H](C)[C@H]6CC)c(C)c5C(=O)N(CCCCCC)C4=O)[C@@H](CCC(=O)OCCC)[C@@H]3C` (stereo partly drawn) gave a logP of 11.19.
